Assay results reported in patent EP4603105A1, “PHARMACEUTICAL COMPOSITION CONTAINING CYCLIC COMPOUND HAVING SELECTIVE KRAS INHIBITORY EFFECT AGAINST HRAS AND NRAS” (CHUGAI SEIYAKU KABUSHIKI KAISHA, priority 2022, dated 2024).
Where a SMILES comes first, the peptide text is derived from it. Bridges are numbered along the chain shown (N, C = ends). [ ]: non-standard residue; d: D form. The star is where a group is joined. hPhe(3-Cl-4-CF3) = N[C@@H](CCc1ccc(C(F)(F)F)c(Cl)c1)C(=O)O; NPrPhe(4-CF3) = CCCN[C@@H](Cc1ccc(C(F)(F)F)cc1)C(=O)O; NMeGly(cPent) = CN[C@H](C(=O)O)C1CCCC1; Pro(4,4-F2) = O=C(O)[C@@H]1CC(F)(F)CN1; Gly(cBu) = N[C@H](C(=O)O)C1CCC1; NMeD = CN[C@@H](CC(=O)O)C(=O)O; NMeL = CN[C@@H](CC(C)C)C(=O)O; Morpholide = C1CN(*)CCO1; NMeA = CN[C@@H](C)C(=O)O; Ac5c = NC1(C(=O)O)CCCC1; Aze = O=C(O)[C@@H]1CCN1; Ac4c = NC1(C(=O)O)CCC1; Sar = CNCC(=O)O

Assays:
[1] = target: GDP-bound NRAS wild-type protein (Homo sapiens, UniProt P01111); assay: Binding to NRAS by surface plasmon resonance (SPR), KD and KD ratio to KRAS
Procedure, shortened: (§1)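 Biotinylated GDP-bound RAS was captured at about 100–300 RU. Running buffer: HBS pH 7.4, 10 mM MgCl2, 10 µM GDP, 1 mM DTT, 0.01% Tween 20, 4% DMSO.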

[2] = test system: human lung cancer strain NCI-H441; assay type: cell-based
Procedure, shortened: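 Step one: dispense the test compound in serial DMSO dilutions. Step three: add the reagent and measure […].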

[3] = target: HRAS wild-type protein (Homo sapiens, UniProt P01112); assay: Binding to HRAS by surface plasmon resonance (SPR), KD and KD ratio to KRAS
Procedure, shortened: as §1

[4] = ratio of KD for GDP-bound NRAS wild-type protein to KD for KRAS
[5] = ratio of KD for HRAS wild-type protein to KD for KRAS
[6] = ratio of KD value for GDP-bound NRAS wild-type protein to KD value for KRAS (SPR)
[7] = ratio of KD value for HRAS wild-type protein to KD value for KRAS (SPR)
[8] = ratio of the KD value with respect to GDP-bound NRAS wild-type protein to the KD value with respect to KRAS
[9] = ratio of the KD value with respect to HRAS wild-type protein to the KD value with respect to KRAS

Chain of GDP-bound NRAS wild-type protein (P01111 whole entry): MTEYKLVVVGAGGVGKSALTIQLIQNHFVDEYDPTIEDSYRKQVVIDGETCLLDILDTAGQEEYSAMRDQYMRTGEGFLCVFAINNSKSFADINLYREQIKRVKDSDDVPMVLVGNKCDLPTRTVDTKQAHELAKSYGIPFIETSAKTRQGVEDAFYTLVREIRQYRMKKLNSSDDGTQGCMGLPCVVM
Chain of HRAS wild-type protein (P01112 whole entry): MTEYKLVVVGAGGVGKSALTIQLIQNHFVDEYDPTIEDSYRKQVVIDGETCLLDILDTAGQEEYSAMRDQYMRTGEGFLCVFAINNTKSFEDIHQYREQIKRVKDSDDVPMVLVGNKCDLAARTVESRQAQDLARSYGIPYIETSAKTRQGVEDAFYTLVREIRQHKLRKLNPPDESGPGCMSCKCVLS

| SMILES | NRAS /KRAS [1, 4] | IC50 [2] [nM] | HRAS /KRAS [3, 5] | NRAS /KRAS [1, 6] | HRAS /KRAS [3, 7] | NRAS /KRAS [1, 8] | HRAS /KRAS [3, 9] |
| --- | --- | --- | --- | --- | --- | --- | --- |
| CCCN1C(=O)CN(C)C(=O)CN(C)C(=O)[C@H]([C@@H](C)CC)NC(=O)[C@@H]2CCCCCCC[C@@H](NC(=O)[C@@H]3C[C@@H](OCC)CN3C(=O)[C@H](CCc3cc(F)c(C(F)(F)F)c(F)c3)NC(=O)CN(C)C(=O)[C@@H]1Cc1ccc(C(F)(F)F)cc1)C(=O)N(C)[C@@H](C1CCCC1)C(=O)N(C)[C@H](C(=O)N(C)C)CC(=O)N2C [PP0925] | A (a compound having 10 or more and less than 20 is denoted as A) | 91 | B (a compound having 3 or more and less than 10 is denoted as B) |  |  |  |  |
| CCCN1C(=O)[C@@H]2CCN2C(=O)[C@H](C)N(C)C(=O)[C@H](C2CCC2)NC(=O)[C@H](CC(C)C)N(C)C(=O)C[C@@H](C(=O)N2CCOCC2)N(C)C(=O)[C@H](C2CCCC2)N(C)C(=O)C2(CCCC2)NC(=O)[C@@H]2CCCN2C(=O)[C@H](CCc2ccc(C(F)(F)F)c(Cl)c2)NC(=O)CN(C)C(=O)[C@@H]1Cc1ccc(C(F)(F)F)cc1 [PP0271] ([NMeL][Gly(cBu)][NMeA][Aze][NPrPhe(4-CF3)][Sar][hPhe(3-Cl-4-CF3)]P[Ac5c][NMeGly(cPent)][NMeD]-Morpholide; lactam N-11) | C (A compound having a KD ratio of 0.1 or more and less than 3 is denoted as C) | 6.5 | B (a compound having 3 or more and less than 10 is denoted as B) |  |  |  |  |
| CCCN1C(=O)CN(C)C(=O)[C@@H]2CCN2C(=O)[C@H]([C@@H](C)CC)NC(=O)[C@H](CC(C)C)N(C)C(=O)C[C@@H](C(=O)N2CCOCC2)N(C)C(=O)[C@H](C2CCCC2)N(C)C(=O)C2(CCCC2)NC(=O)CN(C)C(=O)[C@H](CCc2ccc(C(F)(F)F)c(Cl)c2)NC(=O)CN(C)C(=O)[C@@H]1Cc1ccc(C(F)(F)F)cc1 [PP0314] ([NMeL]I[Aze][Sar][NPrPhe(4-CF3)][Sar][hPhe(3-Cl-4-CF3)][Sar][Ac5c][NMeGly(cPent)][NMeD]-Morpholide; lactam N-11) | B (a compound having 3 or more and less than 10 is denoted as B) | 58.1 | C (A compound having a KD ratio of 0.1 or more and less than 3 is denoted as C) |  |  |  |  |
| CC[C@H](C)[C@@H]1NC(=O)[C@H](CC)N(C)C(=O)C[C@@H](C(=O)N(C)C)N(C)C(=O)[C@H](C2CCCC2)N(C)C(=O)C2(CC(C)(C)C2)NC(=O)[C@@H]2C[C@H](C)CN2C(=O)[C@H](CCc2cc(F)c(C(F)(F)F)c(F)c2)NC(=O)CN(C)C(=O)[C@H](Cc2ccc(C)cc2)N2CC/C=C\C[C@@H](C2=O)N(C)C(=O)CN(C)C1=O [PP1856] |  | 1.4 |  | A (a compound having 10 or more and less than 20 is denoted as A) | A (a compound having 10 or more and less than 20 is denoted as A) |  |  |
| CCO[C@@H]1C[C@H]2C(=O)NC3(CCC3)C(=O)N(C)[C@@H](C3CCCC3)C(=O)N(C)[C@H](C(=O)N3CCOCC3)CC(=O)N(C)[C@@H](COC)C(=O)N[C@@H]([C@@H](C)CC)C(=O)N(C)CC(=O)N(C)[C@H]3CCCCCN(C3=O)[C@@H](Cc3ccc(C(F)(F)F)cc3)C(=O)N(C)CC(=O)N[C@@H](CCc3cc(F)c(C(F)(F)F)c(F)c3)C(=O)N2C1 [PP0689] |  | 34.4 |  |  |  | B (a compound having 3 or more and less than 10 is denoted as B) | B (a compound having 3 or more and less than 10 is denoted as B) |
| CCC[C@H]1C(=O)N[C@@H]([C@@H](C)CC)C(=O)N(C)CC(=O)N(C)[C@H]2C/C=C\CCN(C2=O)[C@@H](Cc2ccc(C(F)(F)F)cc2)C(=O)N(C)CC(=O)N[C@@H](CCc2cc(Cl)c3sccc3c2)C(=O)N2C[C@H](OCC)C[C@H]2C(=O)NC2(CC(C)(C)C2)C(=O)N(C)[C@@H](C(CC)CC)C(=O)N(C)[C@H](C(=O)N(C)C)CC(=O)N1C [PP2888] | AA (a compound having 20 or more is denoted as AA) | 14.2 | A (a compound having 10 or more and less than 20 is denoted as A) |  |  |  |  |
| CCCN1C(=O)[C@@H]2CCN2C(=O)CN(C)C(=O)[C@H]([C@@H](C)CC)NC(=O)[C@H](CC(C)C)N(C)C(=O)C[C@@H](C(=O)N(C)C)NC(=O)[C@H](C2CCCC2)N(C)C(=O)C2(CCC2)NC(=O)[C@@H]2CC(F)(F)CN2C(=O)[C@H](CCc2ccc(C(F)(F)F)c(Cl)c2)NC(=O)CN(C)C(=O)[C@@H]1Cc1ccc(C(F)(F)F)cc1 [PP0388] ([NMeL]I[Sar][Aze][NPrPhe(4-CF3)][Sar][hPhe(3-Cl-4-CF3)][Pro(4,4-F2)][Ac4c][NMeGly(cPent)]D-NMe2; lactam N-11) |  | 11.6 |  |  |  | C (A compound having a KD ratio of 0.1 or more and less than 3 is denoted as C) | B (a compound having 3 or more and less than 10 is denoted as B) |
| CCO[C@@H]1C[C@H]2C(=O)NC3(CCC3)C(=O)N(C)[C@@H](C3CCCC3)C(=O)N(C)[C@H](C(=O)N3CCOCC3)CC(=O)N(C)[C@@H](CC(C)C)C(=O)N[C@@H]([C@@H](C)CC)C(=O)N(C)CC(=O)N(C)[C@H]3CCCCCN(C3=O)[C@@H](Cc3ccc(F)c(C)c3)C(=O)N(C)CC(=O)N[C@@H](CCc3cc(F)c(C(F)(F)F)c(F)c3)C(=O)N2C1 [PP0922] | B (a compound having 3 or more and less than 10 is denoted as B) | 98.2 | B (a compound having 3 or more and less than 10 is denoted as B) |  |  |  |  |
| CCO[C@@H]1C[C@H]2C(=O)NC3(CCC3)C(=O)N(C)[C@@H](C3CCCC3)C(=O)N(C)[C@H](C(=O)N3CCOCC3)CC(=O)N(C)[C@@H](CC(C)C)C(=O)N[C@@H]([C@@H](C)CC)C(=O)N(C)CC(=O)N(C)[C@H]3CCCCCN(C3=O)[C@@H](Cc3ccc4ccsc4c3)C(=O)N(C)CC(=O)N[C@@H](CCc3cc(F)c(C(F)(F)F)c(F)c3)C(=O)N2C1 [PP0921] | B (a compound having 3 or more and less than 10 is denoted as B) | 139 | B (a compound having 3 or more and less than 10 is denoted as B) |  |  |  |  |
| CCC[C@H]1C(=O)N[C@@H]([C@@H](C)CC)C(=O)N(C)CC(=O)N(C)[C@H]2C/C=C\CCN(C2=O)[C@@H](Cc2ccc(C(F)(F)F)cc2)C(=O)N(C)CC(=O)N[C@@H](CCc2cc(Cl)c3c(ccn3C)c2)C(=O)N2C[C@H](OCC)C[C@H]2C(=O)NC2(CC(C)(C)C2)C(=O)N(C)[C@@H](C2CCCC2)C(=O)N(C)[C@H](C(=O)N(C)C)CC(=O)N1C [PP2950] | A (a compound having 10 or more and less than 20 is denoted as A) | 24.2 | A (a compound having 10 or more and less than 20 is denoted as A) |  |  |  |  |
| CCCOC[C@H]1C(=O)N[C@@H]([C@@H](C)CC)C(=O)N(C)CC(=O)N(C)[C@H]2C/C=C\CCN(C2=O)[C@@H](Cc2ccc(C(F)(F)F)cc2)C(=O)N(C)CC(=O)N[C@@H](CCc2ccc(C(F)(F)F)c(Cl)c2)C(=O)N2C[C@H](OCC)C[C@H]2C(=O)NC2(CC(C)(C)C2)C(=O)N(C)[C@@H](C2CCCC2)C(=O)N(C)[C@H](C(=O)N(C)C)CC(=O)N1C [PP1754] |  | 3 |  | A (a compound having 10 or more and less than 20 is denoted as A) | A (a compound having 10 or more and less than 20 is denoted as A) |  |  |
| CCC[C@H]1C(=O)N[C@@H]([C@@H](C)CC)C(=O)N(C)CC(=O)N(C)[C@H]2C/C=C\CCN(C2=O)[C@@H](Cc2ccc(C(F)(F)F)cc2)C(=O)N(C)CC(=O)N[C@@H](CCc2ccc(C(F)(F)F)c(CC)c2)C(=O)N2C[C@H](OCC)C[C@H]2C(=O)NC2(CC(C)(C)C2)C(=O)N(C)[C@@H](C2CCCC2)C(=O)N(C)[C@H](C(=O)N(C)C)CC(=O)N1C [PP2861] | A (a compound having 10 or more and less than 20 is denoted as A) | 6.3 | B (a compound having 3 or more and less than 10 is denoted as B) |  |  |  |  |
